From patent US20120321729A1, “NUTRITIONAL FORMULA FOR MANAGING CHRONIC OBSTRUCTIVE PULMONARY DISEASE (COPD) AND LUNG HEALTH” (priority 2011, published 2012)
Read-outs that look alike come from different tables or passages of the source.

How the values were obtained:
[1] = tested on: Nrf2 (nuclear factor erythroid 2-related factor 2); experiment: Alteration of regulatory elements of oxidative stress and inflammation (Nrf2); details: "We and others have observed"
[2] = tested on: primary rat tracheal epithelial cells; details: a chemical found in tobacco smoke, previously disclosed; cited from earlier work
[3] = tested on: lipopolysaccharide-induced injury (lungs); details: rats; cited from earlier work
[4] = tested on: lipopolysaccharide-induced injury (lungs); details: mice; cited from earlier work
[5] = tested on: Nrf2 (nuclear factor erythroid 2-related factor 2); details: "It has been shown" (related art); cited from earlier work
[6] = tested on: heme oxygenase 1; details: Zhang H S, Wang S Q Biochem Pharmacol. 2007; cited from earlier work
[7] = tested on: inducible nitric oxide synthase; details: Zhang H S, Wang S Q Biochem Pharmacol. 2007; cited from earlier work

Cc1coc2c1C(=O)C(=O)c1c-2ccc2c1CCCC2(C)C [Tanshinone IIA]
effect on regulatory elements involved in oxidative stress and inflammation such as Nrf2 [1]: alters regulatory elements
protection of primary rat tracheal epithelial cells from benzopyrene [2]: protects
protection of lungs from lipopolysaccharide-induced injury [3]: protects lungs
protection of lungs from lipopolysaccharide-induced injury [4]: protects lungs
effect on regulatory elements involved in oxidative stress and inflammation such as Nrf2 [5]: alters regulatory elements
induction of heme oxygenase 1 [6]: inducer
suppression of the induction of inducible nitric oxide synthase [7]: suppressor of the induction
